# Data reported in patent publication EP0357332A2, “Renin inhibitors useful for the treatment of aids by inhibition of HIV protease” (MERCK & CO. INC., priority 1988, dated 1990).
# Tests used:
# [1] = molecular target: T1, synthetic protease [amino acid residues 69-167 of the pol open reading frame] (Human immunodeficiency virus type 1 group M subtype B, UniProt P03366); assay: Assay for inhibition of synthetic viral protease with peptide substrate Val-Ser-Gln-Asn-Tyr-Pro-Ile-Val (HPLC); assay type: biochemical, HIV; conditions: pH 5.5, 30°C, 1 hr
# T1 construct: amino acid residues 69-167 of the pol open reading frame in Ratner, L. et al, Nature, 313, 277 (1985); made in house; host or cells: chemical synthesis (Merrifield solid-phase), no expression host
# Method: Inhibition studies of the reaction of the synthetic protease [amino acid residues 69-167 of the pol open reading frame in Ratner, L. et al, Nature, 313, 277 (1985) and synthesized by Merrifield solid-phase synthesis] with a peptide substrate [Val-Ser-Gln-Asn-Tyr-Pro-Ile-Val, 2 mg/mL when the reaction is initiated] were in 50 mM Na acetate, pH 5.5, at 30°C for 1 hr. Various concentrations of inhibitor in 1.0 µl DMSO were added to 36 µl of assay solution and the reaction initiated by the addition of 4 ul (1.6 µg) of synthetic protease. The reaction was quenched with 160 ul of 12% acetic acid. Products of the reaction were separated by HPLC (VYDAC wide pore 5 cm C-18 reverse phase, acetonitrile gradient, 0.1% trifluoroacetic acid). The extent of inhibition of the reaction was determined from the peak heights of the products. HPLC of the products, independently synthesized, provided quantitation standards and confirmation of the product composition.
# synthetic viral protease = molecular target: T2, synthetic viral protease (Human immunodeficiency virus type 1 group M subtype B, UniProt P03366); assay: Inhibition of beta-casein hydrolysis by synthetic viral protease (14C-beta-casein, TCA soluble counts); assay type: biochemical, HIV; conditions: 14C-beta-casein substrate, 4 hours
# T2 construct: amino acid residues 69-167 of the pol open reading frame in Ratner, L. et al, Nature, 313, 277 (1985); made in house; host or cells: chemical synthesis (Merrifield solid-phase), no expression host
# Method: Inhibition of the synthetic viral protease reaction, of Example 2, with ¹⁴C - beta-casein as substrate in lieu of peptide substrates, was performed. Beta-casein (Sigma) was dialysed overnight at 4°C in 40 mM KPO₄, pH 7.0. Four microliters of the substrate (0.31 mg/ml) are used in each 40 µl reaction. After reaction with the protease for 4 hours, 10 µl of 10% bovine serum albumin and 500 µl of 10% trichloroacetic acid are added, the sample placed on ice for 30 min and centrifuged for 10 min at 15,000 g. From the supernatant a 300 µl aliquot is withdrawn and diluted into 7 ml liquid scintillation cocktail. Typical background level of TCA soluble counts (no enzyme added) is 200 and no inhibitor samples give a net signal of 1000 cpm.
# [2] = Inh. Conc. 0.01 µM, listed as Cmpd A
# [3] = Inh. Conc. 0.1 µM, listed as Cmpd A
# [4] = Inh. Conc. 1 µM, listed as Cmpd A
# [5] = Inh. Conc. 0.01 µM, listed as Cmpd B
# [6] = Inh. Conc. 0.1 µM, listed as Cmpd B
# [7] = Inh. Conc. 1 µM, listed as Cmpd B
SMILES,"PERCENT INHIBITION [1, 2] [%]","PERCENT INHIBITION [1, 3] [%]","PERCENT INHIBITION [1, 4] [%]",PERCENT INHIBITION ([1]; Inh. Conc. 100 µM) [%],PERCENT INHIBITION (synthetic viral protease; [2]) [%],PERCENT INHIBITION (synthetic viral protease; [3]) [%],PERCENT INHIBITION (synthetic viral protease; [4]) [%],"PERCENT INHIBITION (synthetic viral protease; Inh. Conc. 10 µM, listed as Cmpd A) [%]","PERCENT INHIBITION (synthetic viral protease; Inh. Conc. 100 µM, listed as Cmpd A) [%]",PERCENT INHIBITION ([1]; Inh. Conc. 0.001 µM) [%],"PERCENT INHIBITION [1, 5] [%]","PERCENT INHIBITION [1, 6] [%]","PERCENT INHIBITION [1, 7] [%]",PERCENT INHIBITION ([1]; Inh. Conc. 10 µM) [%],PERCENT INHIBITION (synthetic viral protease; Inh. Conc. 0.001 µM) [%],PERCENT INHIBITION (synthetic viral protease; [5]) [%],PERCENT INHIBITION (synthetic viral protease; [6]) [%],PERCENT INHIBITION (synthetic viral protease; [7]) [%],"PERCENT INHIBITION (synthetic viral protease; Inh. Conc. 10 µM, listed as Cmpd B) [%]","PERCENT INHIBITION (synthetic viral protease; Inh. Conc. 100 µM, listed as Cmpd B) [%]"
"CC(C)C[C@H](NC(=O)C(Cc1ccccc1)C[C@H](O)[C@H](Cc1ccccc1)NC(=O)[C@H](Cc1ccccc1)NC(=O)[C@H](Cc1ccccc1)NC(=O)OC(C)(C)C)C(=O)N[C@@H](Cc1ccccc1)C(N)=O (single isomer, unassigned) [A, N′-(1,1-Dimethylethoxycarbonyl)-Phe-Phe-5(S)-Amino-4(S)-Hydroxy-6-Phenyl-2(R or S)-(Phenylmethyl)Hexanoyl-Leu-Phe-Amide]",0,20,40,100,0,14,82,65,97,,,,,,,,,,,
"CC(C)C[C@H](NC(=O)C(Cc1ccccc1)C[C@H](O)[C@H](Cc1ccccc1)NC(=O)[C@H](Cc1ccccc1)NC(=O)[C@H](Cc1ccccc1)NC(=O)OC(C)(C)C)C(=O)N[C@@H](Cc1ccccc1)C(N)=O (single isomer, unassigned) [Compound B, N′-(1,1-Dimethylethoxycarbonyl)-Phe-Phe-5(S)-Amino-4(S)-Hydroxy-6-Phenyl-2(S or R)-(Phenylmethyl)Hexanoyl-Leu-Phe-Amide]",,,,100,,,,,,20,60,100,100,100,20,67,97,95,91,60
